From PubChem BioAssay (NCI)
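How tested: cells in 96-well plates exposed to compound for 48 hours at five concentrations. At the GI50, growth is halved. TGI denotes the concentration required for complete inhibition of growth.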

Key:
Assay in all cases: inhibition of tumour cell growth, NCI panel, 48 h
786-0 renal = test system: 786-0 renal
A498 renal = test system: A498 renal
A549 NSCLC = test system: A549 NSCLC
ACHN renal = test system: ACHN renal
BT-549 breast = test system: BT-549 breast
CAKI-1 renal = test system: CAKI-1 renal
CCRF-CEM leukemia = test system: CCRF-CEM leukemia
COLO 205 colon = test system: COLO 205 colon
DU-145 prostate = test system: DU-145 prostate
EKVX NSCLC = test system: EKVX NSCLC
HCC-2998 colon = test system: HCC-2998 colon
HCT-116 colon = test system: HCT-116 colon
HCT-15 colon = test system: HCT-15 colon
HL-60(TB) leukemia = test system: HL-60(TB) leukemia
HOP-62 NSCLC = test system: HOP-62 NSCLC
HOP-92 NSCLC = test system: HOP-92 NSCLC
HS 578T breast = test system: HS 578T breast
HT29 colon = test system: HT29 colon
IGROV1 ovarian = test system: IGROV1 ovarian
K-562 leukemia = test system: K-562 leukemia
KM12 colon = test system: KM12 colon
LOX IMVI melanoma = test system: LOX IMVI melanoma
M14 melanoma = test system: M14 melanoma
MALME-3M melanoma = test system: MALME-3M melanoma
MCF7 breast = test system: MCF7 breast
MDA-MB-231 breast = test system: MDA-MB-231 breast
MDA-MB-435 = test system: MDA-MB-435
MOLT-4 leukemia = test system: MOLT-4 leukemia
NCI-H226 lung = test system: NCI-H226 lung
NCI-H23 lung = test system: NCI-H23 lung
NCI-H460 lung = test system: NCI-H460 lung
NCI-H522 lung = test system: NCI-H522 lung
NCI/ADR-RES ovarian = test system: NCI/ADR-RES ovarian
OVCAR-3 ovarian = test system: OVCAR-3 ovarian
OVCAR-4 ovarian = test system: OVCAR-4 ovarian
OVCAR-5 ovarian = test system: OVCAR-5 ovarian
OVCAR-8 ovarian = test system: OVCAR-8 ovarian
PC-3 prostate = test system: PC-3 prostate
RPMI-8226 leukemia = test system: RPMI-8226 leukemia
RXF 393 renal = test system: RXF 393 renal
SF-268 CNS = test system: SF-268 CNS
SF-295 CNS = test system: SF-295 CNS
SF-539 CNS = test system: SF-539 CNS
SK-MEL-2 melanoma = test system: SK-MEL-2 melanoma
SK-MEL-28 melanoma = test system: SK-MEL-28 melanoma
SK-MEL-5 melanoma = test system: SK-MEL-5 melanoma
SK-OV-3 ovarian = test system: SK-OV-3 ovarian
SN12C renal = test system: SN12C renal
SNB-19 CNS = test system: SNB-19 CNS
SNB-75 CNS = test system: SNB-75 CNS
SR leukemia = test system: SR leukemia
SW-620 colon = test system: SW-620 colon
T-47D breast = test system: T-47D breast
TK-10 renal = test system: TK-10 renal
U251 CNS = test system: U251 CNS
UACC-257 melanoma = test system: UACC-257 melanoma
UACC-62 melanoma = test system: UACC-62 melanoma
UO-31 renal = test system: UO-31 renal

COc1cccc(CC(C)=C(c2ccc(OCCN(C)C)cc2)c2ccc(OCCN(C)C)cc2)c1
GI50 (786-0 renal): 0.606 µM | TGI (786-0 renal): 1.27 µM | GI50 (A498 renal): 4.79 µM | TGI (A498 renal): 9.63 µM | GI50 (A549 NSCLC): 3.59 µM | TGI (A549 NSCLC): 8.25 µM | GI50 (ACHN renal): 1.04 µM | TGI (ACHN renal): 3.35 µM | GI50 (BT-549 breast): 4.29 µM | TGI (BT-549 breast): 8.88 µM | GI50 (CAKI-1 renal): 3.96 µM | TGI (CAKI-1 renal): 8.27 µM | GI50 (CCRF-CEM leukemia): 0.693 µM | TGI (CCRF-CEM leukemia): 2.23 µM | GI50 (COLO 205 colon): 0.626 µM | TGI (COLO 205 colon): 1.31 µM | GI50 (DU-145 prostate): 3.86 µM | TGI (DU-145 prostate): 8.26 µM | GI50 (EKVX NSCLC): 4.09 µM | TGI (EKVX NSCLC): 8.52 µM | GI50 (HCC-2998 colon): 0.895 µM | TGI (HCC-2998 colon): 4.92 µM | GI50 (HCT-116 colon): 0.644 µM | TGI (HCT-116 colon): 1.5 µM | GI50 (HCT-15 colon): 0.974 µM | TGI (HCT-15 colon): 3.6 µM | GI50 (HL-60(TB) leukemia): 0.667 µM | TGI (HL-60(TB) leukemia): 1.34 µM | GI50 (HOP-62 NSCLC): 2.24 µM | TGI (HOP-62 NSCLC): 6.92 µM | GI50 (HOP-92 NSCLC): 0.865 µM | TGI (HOP-92 NSCLC): 4.48 µM | GI50 (HS 578T breast): 3.58 µM | TGI (HS 578T breast): 8.9 µM | GI50 (HT29 colon): 0.706 µM | TGI (HT29 colon): 1.91 µM | GI50 (IGROV1 ovarian): 3.98 µM | TGI (IGROV1 ovarian): 8.73 µM | GI50 (K-562 leukemia): 0.614 µM | TGI (K-562 leukemia): 1.77 µM | GI50 (KM12 colon): 4.08 µM | TGI (KM12 colon): 8.77 µM | GI50 (LOX IMVI melanoma): 0.604 µM | TGI (LOX IMVI melanoma): 1.16 µM | GI50 (M14 melanoma): 0.612 µM | TGI (M14 melanoma): 1.2 µM | GI50 (MALME-3M melanoma): 0.564 µM | TGI (MALME-3M melanoma): 1.05 µM | GI50 (MCF7 breast): 0.926 µM | TGI (MCF7 breast): 3.85 µM | GI50 (MDA-MB-231 breast): 1.1 µM | TGI (MDA-MB-231 breast): 4.69 µM | GI50 (MDA-MB-435): 0.682 µM | TGI (MDA-MB-435): 1.37 µM | GI50 (MOLT-4 leukemia): 0.834 µM | TGI (MOLT-4 leukemia): 2.39 µM | GI50 (NCI-H226 lung): 4.8 µM | TGI (NCI-H226 lung): 10.4 µM | GI50 (NCI-H23 lung): 4.42 µM | TGI (NCI-H23 lung): 9.24 µM | GI50 (NCI-H460 lung): 2.83 µM | TGI (NCI-H460 lung): 7.38 µM | GI50 (NCI-H522 lung): 2.86 µM | TGI (NCI-H522 lung): 7.95 µM | GI50 (NCI/ADR-RES ovarian): 3.76 µM | TGI (NCI/ADR-RES ovarian): 8.32 µM | GI50 (OVCAR-3 ovarian): 1.18 µM | TGI (OVCAR-3 ovarian): 3.42 µM | GI50 (OVCAR-4 ovarian): 3.53 µM | TGI (OVCAR-4 ovarian): 8.16 µM | GI50 (OVCAR-5 ovarian): 3.24 µM | TGI (OVCAR-5 ovarian): 7.35 µM | GI50 (OVCAR-8 ovarian): 2.04 µM | TGI (OVCAR-8 ovarian): 6.71 µM | GI50 (PC-3 prostate): 1.95 µM | TGI (PC-3 prostate): 6.82 µM | GI50 (RPMI-8226 leukemia): 0.842 µM | TGI (RPMI-8226 leukemia): 2.24 µM | GI50 (RXF 393 renal): 0.779 µM | TGI (RXF 393 renal): 4.44 µM | GI50 (SF-268 CNS): 4.03 µM | TGI (SF-268 CNS): 8.69 µM | GI50 (SF-295 CNS): 4.07 µM | TGI (SF-295 CNS): 8.62 µM | GI50 (SF-539 CNS): 0.589 µM | TGI (SF-539 CNS): 1.1 µM | GI50 (SK-MEL-2 melanoma): 5.19 µM | TGI (SK-MEL-2 melanoma): 10.9 µM | GI50 (SK-MEL-28 melanoma): 0.602 µM | TGI (SK-MEL-28 melanoma): 1.1 µM | GI50 (SK-MEL-5 melanoma): 4.75 µM | TGI (SK-MEL-5 melanoma): 9.26 µM | GI50 (SK-OV-3 ovarian): 5.66 µM | TGI (SK-OV-3 ovarian): 10.4 µM | GI50 (SN12C renal): 4.19 µM | TGI (SN12C renal): 8.69 µM | GI50 (SNB-19 CNS): 4.38 µM | TGI (SNB-19 CNS): 8.99 µM | GI50 (SNB-75 CNS): 1.46 µM | TGI (SNB-75 CNS): 6.28 µM | GI50 (SR leukemia): 0.787 µM | TGI (SR leukemia): 2.22 µM | GI50 (SW-620 colon): 0.735 µM | TGI (SW-620 colon): 1.82 µM | GI50 (T-47D breast): 0.681 µM | TGI (T-47D breast): 1.77 µM | GI50 (TK-10 renal): 5.43 µM | TGI (TK-10 renal): 10.3 µM | GI50 (U251 CNS): 0.903 µM | TGI (U251 CNS): 2.42 µM | GI50 (UACC-257 melanoma): 4.06 µM | TGI (UACC-257 melanoma): 8.8 µM | GI50 (UACC-62 melanoma): 0.689 µM | TGI (UACC-62 melanoma): 1.5 µM | GI50 (UO-31 renal): 3.55 µM | TGI (UO-31 renal): 7.57 µM
